Assay results reported in the supplement of paper PMC10307832.

What was measured:
Assay in all cases: relative viability (nuclei count vs DMSO), 5 days (fraction); higher = more cells survive
Veliparib + OSI-027 = compound: C[C@]1(c2nc3c(C(N)=O)cccc3[nH]2)CCCN1 [Veliparib] + COc1cccc2cc(-c3nc([C@H]4CC[C@H](C(=O)O)CC4)n4ncnc(N)c34)[nH]c12 [OSI-027] (partner 0.5 µM)
Method in brief: (§1)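 After 5 days of treatment, lung cancer cells in 1536-well plates were fixed and stained in a single step (final 0.05% Triton X-100, 1% formaldehyde, 1 ug/ml Hoechst) and their nuclei counted on 4× images. Treatment had been applied by pin tool the day after seeding as one drug alone or as a fixed anchor-drug dose with five library-drug doses (not always all listed) in √10 steps. Relative viability is the nuclei count of treated wells divided by that of vehicle wells, and values are medians of duplicate plates.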

Veliparib + Linsitinib = compound: C[C@]1(c2nc3c(C(N)=O)cccc3[nH]2)CCCN1 [Veliparib] + C[C@]1(O)C[C@@H](c2nc(-c3ccc4ccc(-c5ccccc5)nc4c3)c3c(N)nccn32)C1 [Linsitinib] (partner 1 µM)
Method in brief: as §1

Veliparib + Alpelisib = compound: C[C@]1(c2nc3c(C(N)=O)cccc3[nH]2)CCCN1 [Veliparib] + Cc1nc(NC(=O)N2CCC[C@H]2C(N)=O)sc1-c1ccnc(C(C)(C)C(F)(F)F)c1 [Alpelisib] (partner 2 µM)
Method in brief: as §1

Veliparib + Vorinostat = compound: C[C@]1(c2nc3c(C(N)=O)cccc3[nH]2)CCCN1 [Veliparib] + O=C(CCCCCCC(=O)Nc1ccccc1)NO [Vorinostat] (partner 1 µM)
Method in brief: as §1

Row | Cell Line | relative viability (Veliparib + OSI-027; first compound 0.02 µM) | relative viability (Veliparib + OSI-027; first compound 0.06325 µM) | relative viability (Veliparib + OSI-027; first compound 0.2 µM) | relative viability (Veliparib + OSI-027; first compound 0.6325 µM) | relative viability (Veliparib + OSI-027; first compound 2 µM) | relative viability (Veliparib + Linsitinib; first compound 0.02 µM) | relative viability (Veliparib + Linsitinib; first compound 0.06325 µM) | relative viability (Veliparib + Linsitinib; first compound 0.2 µM) | relative viability (Veliparib + Linsitinib; first compound 0.6325 µM) | relative viability (Veliparib + Linsitinib; first compound 2 µM) | relative viability (Veliparib + Alpelisib; first compound 0.02 µM) | relative viability (Veliparib + Alpelisib; first compound 0.06325 µM) | relative viability (Veliparib + Alpelisib; first compound 0.2 µM) | relative viability (Veliparib + Alpelisib; first compound 0.6325 µM) | relative viability (Veliparib + Alpelisib; first compound 2 µM) | relative viability (Veliparib + Vorinostat; first compound 0.02 µM) | relative viability (Veliparib + Vorinostat; first compound 0.06325 µM) | relative viability (Veliparib + Vorinostat; first compound 0.2 µM) | relative viability (Veliparib + Vorinostat; first compound 0.6325 µM) | relative viability (Veliparib + Vorinostat; first compound 2 µM)
1 | HCC-827 | 0.763 | 0.843 | 0.722 | 0.552 | 0.786 | 0.96 | 0.899 | 0.816 | 0.949 | 0.939 | 0.922 | 1.02 | 0.986 | 0.971 | 0.899 | 0.764 | 0.834 | 0.793 | 0.671 | 0.746
2 | NCI-H520 | 0.224 | 0.309 | 0.276 | 0.231 | 0.234 | 0.984 | 1.03 | 0.966 | 0.922 | 1.04 | 0.882 | 1.06 | 0.859 | 0.791 | 1.03 | 0.769 | 0.62 | 0.612 | 0.727 | 0.773
3 | NCI-H2126 | 0.647 | 0.608 | 0.747 | 0.749 | 0.679 | 0.715 | 0.668 | 0.701 | 0.661 | 0.733 | 0.76 | 0.745 | 0.725 | 0.655 | 0.739 | 0.811 | 0.777 | 0.893 | 0.785 | 0.803
4 | EPLC-272H | 0.227 | 0.273 | 0.265 | 0.26 | 0.344 |  | 1.11 | 1.18 | 1.08 | 1.24 |  | 0.951 | 1.1 | 0.901 | 0.924 |  | 0.457 | 0.424 | 0.518 | 0.474
5 | HCC-366 | 0.961 | 0.752 | 0.89 | 0.838 | 0.915 | 0.511 | 0.623 | 0.536 | 0.572 | 0.574 | 0.452 | 0.234 | 0.365 | 0.384 | 0.411 | 0.379 | 0.232 | 0.296 | 0.27 | 0.289
6 | EKVX | 0.629 | 0.646 | 0.63 | 0.639 | 0.675 | 0.948 | 0.912 | 0.952 | 0.86 | 1.02 | 0.784 | 0.867 | 0.85 | 0.837 | 0.902 |  | 0.745 | 0.789 | 0.626 | 0.66
7 | NCI-H1395 | 0.494 | 0.576 | 0.548 | 0.579 | 0.523 |  | 0.987 | 0.853 | 0.745 | 0.716 |  | 1.37 | 0.873 | 1.09 | 0.74 | 0.432 | 0.485 | 0.648 | 0.638 | 0.499
8 | 201T | 0.659 | 0.58 | 0.713 | 0.759 | 0.722 | 1.08 | 1.06 | 0.995 | 1.02 | 1.01 | 1.02 | 1.02 | 1.02 | 1.01 | 0.973 | 0.922 | 0.954 | 0.929 | 1.16 | 0.928
9 | LC-2-ad |  | 0.758 | 0.781 | 0.792 | 0.87 |  | 0.83 | 0.787 | 0.819 | 0.786 |  | 0.783 | 0.846 | 0.926 | 0.897 | 0.434 | 0.656 | 0.717 | 0.655 | 0.788
10 | COR-L 105 | 0.462 | 0.715 | 0.651 | 0.626 | 0.654 | 0.984 | 0.86 | 0.982 | 0.915 | 0.915 | 1.12 | 1.1 | 1.09 | 0.862 | 1.11 | 1.02 | 0.823 | 0.869 | 0.698 | 0.813
11 | HCC-78 | 0.4 | 0.364 | 0.339 | 0.402 | 0.423 | 0.612 | 0.53 | 0.592 | 0.36 | 0.541 | 0.455 | 0.406 | 0.387 | 0.36 | 0.322 | 0.5 | 0.437 | 0.453 | 0.44 | 0.452
12 | NCI-H441 | 0.622 | 0.539 | 0.553 | 0.585 | 0.617 | 0.506 | 0.589 | 0.563 | 0.584 | 0.541 | 0.735 | 0.886 | 0.716 | 0.737 | 0.671 | 0.75 | 0.552 | 0.63 | 0.695 | 0.83
13 | NCI-H650 | 0.436 | 0.415 | 0.543 | 0.48 | 0.55 | 0.766 | 0.716 | 0.864 | 0.875 | 0.448 | 1.28 | 0.983 | 1.23 | 0.999 | 1.2 | 0.29 | 0.333 | 0.397 | 0.457 | 0.432
14 | SK-MES-1 | 0.618 | 0.527 | 0.686 | 0.588 | 0.638 | 1.05 | 1.03 | 1.06 | 0.913 | 1.09 | 0.938 | 0.712 | 0.878 | 0.785 | 0.848 | 1.19 | 1.08 | 1.09 | 1.04 | 1.07
15 | ABC-1 |  | 0.429 | 0.618 | 0.493 | 0.312 |  | 0.767 | 0.807 | 0.759 | 0.892 |  | 0.809 | 1.1 | 1.05 | 0.894 |  |  | 0.979 | 1.37 | 0.875
16 | A-427 |  | 0.414 | 0.485 | 0.456 | 0.463 | 1.21 | 1.05 | 1.04 | 1.03 | 1.14 | 1.1 | 1.01 | 1.06 | 1.06 | 1.14 | 0.813 | 0.867 | 0.867 | 0.842 | 0.934
17 | HARA | 0.508 | 0.495 | 0.465 | 0.433 | 0.485 | 1.15 | 0.992 | 0.908 | 0.743 | 1.07 | 0.943 | 0.769 | 0.921 | 0.827 | 0.822 |  | 0.492 | 0.521 | 0.529 | 0.565
18 | NCI-H1944 | 0.439 | 0.363 | 0.394 | 0.349 | 0.384 | 1.21 | 1.17 | 1.06 | 1.19 | 1.12 | 0.792 | 0.849 | 0.752 | 0.818 | 0.756 | 0.491 | 0.498 | 0.388 | 0.44 | 0.459
19 | HCC-44 | 0.556 |  | 0.478 | 0.682 | 0.479 | 0.665 | 0.5 | 0.636 | 0.622 | 0.694 | 0.807 | 0.648 | 0.844 | 0.762 | 0.803 | 1.07 | 1.03 | 1.07 | 1.06 | 1.15
20 | NCI-H1915 | 0.587 | 0.616 | 0.545 | 0.567 | 0.574 | 1.07 | 1.07 | 1.02 | 0.954 | 0.995 | 1.03 | 1.02 | 0.976 | 0.898 | 0.926 | 0.499 | 0.465 | 0.396 | 0.388 | 0.426
21 | NCI-H1793 | 0.317 | 0.265 | 0.31 | 0.286 | 0.262 | 0.864 | 0.804 | 0.956 | 0.728 | 0.828 | 0.819 | 0.582 | 0.755 | 0.661 | 0.69 | 0.654 | 0.697 | 0.58 | 0.807 | 0.722
22 | NCI-H596 | 0.805 | 0.696 | 0.779 | 0.783 | 0.68 | 1 | 1.02 | 1.07 | 0.893 | 0.99 | 0.516 | 0.497 | 0.541 | 0.472 | 0.526 | 0.659 | 0.55 | 0.498 | 0.624 | 0.55
23 | NCI-H1666 | 0.938 | 0.791 | 0.763 | 0.806 | 0.848 | 0.93 | 0.557 | 0.865 | 0.671 | 0.838 | 1.04 | 0.709 | 0.857 | 0.829 | 1 | 0.988 | 0.963 | 1.14 | 0.997 | 1.05
24 | NCI-H3122 | 0.829 | 0.923 | 0.935 | 0.96 | 0.991 | 1.04 | 1.01 | 0.983 | 1.04 | 1.06 | 0.785 | 0.755 | 0.768 | 0.76 | 0.752 | 0.906 | 1.05 | 0.972 | 0.929 | 1.07
25 | PC-14 | 0.292 | 0.774 | 0.82 | 0.743 | 0.866 | 1.02 | 0.915 | 0.953 | 0.86 | 0.926 | 0.923 | 0.862 | 0.796 | 0.886 | 0.893 |  | 0.622 | 0.701 | 0.639 | 0.64
26 | NCI-H2087 | 0.303 | 0.475 | 0.504 | 0.456 | 0.539 | 1.01 | 0.903 | 1.02 | 0.898 | 0.999 | 1.05 | 1.02 | 1.09 | 1.07 | 1.04 | 0.504 | 0.747 | 0.875 | 0.645 | 0.726
27 | LCLC-103H | 0.464 | 0.434 | 0.462 | 0.466 | 0.5 | 1.1 | 0.982 | 1.11 | 1.01 | 1.08 | 1.13 | 0.896 | 0.936 | 1.06 | 0.949 | 0.846 | 0.726 | 0.819 | 0.749 | 0.77
